Literature values in PMC9347208, “Pharmacological activation of the hERG K^+ channel for the management of the long QT syndrome: A review” (Journal of Arrhythmia, 2022).
Entries after “also recorded” stand apart in the source; their conditions may differ. Like-named read-outs stand apart in the source and are kept apart here.

Columns and labels:
ICa,L [1] = system: ICa,L; design: method as in PMID 29050968, PMID 18042732; details: ventricular cardiomyocytes isolated from rabbit hearts; ref [41], [83]
Ito = system: Ito; design: method as in PMID 29050968, PMID 18042732; details: ventricular cardiomyocytes isolated from rabbit hearts; ref [41], [83]
hERG channel [2] = system: hERG channel
Kv1.5 (IKur) = details: 50 μM; ref [19], [21]
hERG channel [3] = details: astemizole, sertindole, dofetilide, and cisapride, radioligand assays, ref [19] and column References of the table row
[4] = system: Dofetilide‐induced arrhythmias; details: after pretreatment; ref [19], [21]
hCav1.2 (ICa,L) = system: hCav1.2 (ICa,L); design: method as in column Ref. of the table row
hKir2.1 (IK1) = details: ref [19], [29]
hKv4.3 (Ito) = details: ref [19], [29]
IKr = details: native human cardiomyocytes from LQT1 patients; ref [19], [29]
ICa,L [5] = details: recorded from guinea pig cardiomyocytes
IKs = system: IKs; design: method as in PMID 15976038, PMID 29050968, PMID 19892732, PMID 31877041, PMID 23840331; details: recorded from isolated guinea pig cardiomyocytes; ref [22], [41], [52], [53], [59], [60]
hERG channel mutants = system: hERG channel mutants; design: method as in column Ref. of the table row; details: mutation named in the value
SQT1 model = system: SQT1 model; design: method as in column Ref. of the table row; details: by creating the substrate for reentry
[6] = system: APD, EADs, and QT prolongation; design: method as in PMID 15976038, PMID 29050968, PMID 19892732, PMID 31877041, PMID 23840331; details: 3 μM; caused by high‐affinity inhibitor dofetilide; ref [22], [41], [52], [53], [59], [60]
E637K hERG mutant = system: E637K hERG mutant; design: method as in PMID 15976038, PMID 29050968, PMID 19892732, PMID 31877041, PMID 23840331; details: ref [22], [41], [52], [53], [59], [60]
[7] = system: perfused canine atrial preparations; design: method as in PMID 15976038, PMID 29050968, PMID 19892732, PMID 31877041, PMID 23840331; details: ERP abbreviation and TDR amplification, ref [22], [41], [52], [53], [59], [60]
hERG channel [8] = details: for Type: type of hERG activator by main mechanism of action, ref [40]
[9] = system: ventricular repolarisation (APD, QT interval)
hERG1a and hERG1b = system: hERG1a and hERG1b; design: method as in column Ref. of the table row
[10] = system: neuronal Kv12.1 ether‐à‐ go‐go‐gene‐like (elk3) channel; design: method as in PMID 24041920, PMID 25809254, PMID 18452879, PMID 29050968, PMID 25191697; details: ref [16], [27], [32], [41], [48], [58], [61], [70], [84]
guinea pig hearts = details: Langendorff‐perfused Guinea pig hearts, high concentrations; ref [16], [27], [32], [41], [48], [58], [61], [70], [84]
[11] = recorded from isolated guinea pig cardiomyocytes, ref [22], [41], [52], [53], [59], [60]
[12] = suggested, as no change to AP amplitude and diastolic potential of guinea pig cardiomyocytes

O=C(O)c1cccnc1Nc1ccc2c(c1)CN(c1ccc(Cl)c(Cl)c1)C2 [PD‐307243]
Channel selectivity: effect on recombinant hNav1.5 (INa) (hNav1.5 (INa)): No effect | Channel selectivity: effect on recombinant hKCNQ1‐KCNE1 (IKs) (hKCNQ1‐KCNE1 (IKs)): No effect | Channel selectivity: effect on ICa,L (ICa,L [1]): Activates | Channel selectivity: effect on Ito (Ito): no effect | Reported benefit for LQT: activator effect in presence of BeKm‐1 (hERG channel [2]; ref [41], [83]): potentiated | Reported benefit for LQT: diLQTS, interaction with dofetilide (hERG channel [2]; ref [41], [83]): Dofetilide prevents the activator effect of PD and unmasks its current suppressing effect

O=C(COc1ccc2ccccc2c1Br)Nc1cccnc1 [VU0405601]
Channel selectivity: effect on recombinant Nav1.5 (INa) (hNav1.5 (INa); 50 μM, ref [19], [21]): No or small effect of 50 μM on recombinant cardiac Kv1.5 (IKur), Nav1.5 (INa), and KCNQ1 + KCNE1 (IKs) channels. | Channel selectivity: effect on recombinant KCNQ1 + KCNE1 (IKs) (hKCNQ1‐KCNE1 (IKs); 50 μM, ref [19], [21]): No or small effect of 50 μM on recombinant cardiac Kv1.5 (IKur), Nav1.5 (INa), and KCNQ1 + KCNE1 (IKs) channels. | Channel selectivity: effect on recombinant cardiac Kv1.5 (IKur) (Kv1.5 (IKur)): No or small effect of 50 μM on recombinant cardiac Kv1.5 (IKur), Nav1.5 (INa), and KCNQ1 + KCNE1 (IKs) channels. | Allosteric effect on the binding of hERG blockers (hERG channel [3]): negative allosteric modulators; also recorded: weaken interactions | Reported benefit for LQT: diLQTS, dofetilide‐induced arrhythmias [4]: reduced

O=C(COc1ccc(C(=O)c2ccccc2)cc1)Nc1cccnc1 [ML‐T531]
Channel selectivity: effect on recombinant hNav1.5 (INa) (hNav1.5 (INa)): No effect | Channel selectivity: effect on hKCNQ1‐KCNE1 channels (IKs) (hKCNQ1‐KCNE1 (IKs); 10 μM, ref [19], [29]): minor suppressive effect | Channel selectivity: effect on recombinant hCav1.2 (ICa,L) (hCav1.2 (ICa,L)): No effect | Channel selectivity: effect on recombinant hKir2.1 (IK1) (hKir2.1 (IK1)): No effect | Channel selectivity: effect on recombinant hKv4.3 (Ito) (hKv4.3 (Ito)): No effect | Allosteric effect on the binding of hERG blockers (hERG channel [3]): Negative effect on the binding | Allosteric effect on the binding of hERG blockers (hERG channel [3]; listed as MLT‐531): negative allosteric modulators | Reported benefit for LQT: cLQTS, IKr (IKr): IKr increase

O=C(O)c1ccccc1Nc1ccc(CCc2ccc(Cl)c(Cl)c2)cc1 [PD‐118057]
Channel selectivity: effect on cardiac ICa,L (ICa,L [5]): No effect on INa, ICa‐L, IK1, and IKs recorded from isolated guinea pig cardiomyocytes. | Channel selectivity: effect on IK1 (IK1; [11]): No effect on INa, ICa‐L, IK1, and IKs recorded from isolated guinea pig cardiomyocytes. | Channel selectivity: effect on INa (INa; [11]): No effect on INa, ICa‐L, IK1, and IKs recorded from isolated guinea pig cardiomyocytes. | Channel selectivity: effect on IKs (IKs): No effect on INa, ICa‐L, IK1, and IKs recorded from isolated guinea pig cardiomyocytes. | Molecular determinants of activity: effect of hERG mutations on agonist activity (hERG channel mutants): Mutation to F619 and L646 suppresses agonist activity; also recorded: Mutation to C643 and M645 enhances drug activity | Reported associated pro‐arrhythmic risk: SQT1 manifestations (SQT1 model): Recapitulates the electrophysiological and arrhythmic manifestations of SQT1 | Reported benefit for LQTS: diLQTS [6]: prevents APD, EADs, and QT prolongation | Reported benefit for LQTS: cLQTS, rescue of E637K hERG mutant (E637K hERG mutant): Failed to rescue | Reported associated pro‐arrhythmic risk: arrhythmia provocations [7]: Increases arrhythmia provocations | Type (hERG channel [8]): 4 | Effect on PRRP and QT interval ([9]; ref [21], [60], [61]): increase the PRRP and shorten the QT interval but potentially to the point of triggering arrhythmia

O=C(Nc1cc(C(F)(F)F)ccc1O)Nc1cc(C(F)(F)F)ccc1O [NS1643, 1,3‐bis‐(2‐hydroxy‐5‐trifluoromethyl‐phenyl)‐urea]
Effect against Nav1.5 channels (hNav1.5 (INa); ref [32]): inhibitory effects | Channel selectivity: sensitivity of hERG1a versus hERG1b (hERG1a and hERG1b): Differential sensitivity | Channel selectivity: effect on cardiac IK1 (IK1; [12]): Suggested absence | Channel selectivity: effect on cardiac INa (INa; [12]): Suggested absence | Channel selectivity: effect on neuronal Kv12.1 (elk3) channel [10]: Inhibitor | Reported associated pro‐arrhythmic risk: ventricular tachycardia and fibrillation (guinea pig hearts): Induces ventricular tachycardia and ventricular fibrillation | Reported benefit for LQT: diLQTS, effects of hERG inhibition by drug inhibitors (hERG channel [2]; 10 μM, inhibitors e.g. E‐4031, dofetilide, moxifloxacin, ref [16], [27], [32], [41], [48], [58], [61], [70], [84]): attenuate electrophysiological effects associated with hERG inhibition by various drug inhibitors; also recorded: did not reverse the inhibition to the control levels | Potency in reducing hERG channel inactivation (hERG channel [8]; ref [16], [31]): modest potency compared with ICA‐105574 | Type (hERG channel [8]): 1, 2, and possibly 3 | Efficacy against triggered activity ([9]; low concentration, in vitro and ex vivo experimental models, ref [32]): effective against triggered activity | TDR and instability of the QT interval ([9]; only in the presence of an I Ks inhibitor, ref [16]): markedly amplify
